Activity calls are given as the source filed them. No cut-off for these calls is given here.
Tests used:
HeLa [1] = assay: Cytotoxicity against human HeLa cells assessed as inhibition of number of colonies formed in soft agar after 14 days by microscopic analysis; type: functional
HeLa [2] = assay: Cytotoxicity against human HeLa cells assessed as cell viability after 24 hrs by MTS assay; type: functional, cell-based
[3] = target: Cellular tumor antigen p53 (Mus musculus) (UniProt P02340); assay: Inhibition of p53-dependent transcriptional activity in tumor promotion-sensitive mouse JB6 Cl41 cells after 12 hrs by luciferase-based method; type: cell-based
HeLa [4] = assay: Ratio of IC50 to INCC50 for human HeLa cells; type: functional
HeLa [5] = assay: Cytotoxicity against human HeLa cells assessed as cell viability after 48 hrs by MTS assay; type: functional, cell-based
[6] = Cytotoxicity against tumor promotion-sensitive mouse JB6 Cl41 cells assessed as cell viability after 48 hrs by MTS assay; type: cell-based; settings: JB6 Cl41, 48 h
HeLa [7] = assay: Induction of p53-independent apoptosis in human HeLa cells assessed as late apoptotic/necrotic cells at 5 uM after 24 hrs by Annexin-V-FITC/propidium iodide double staining based flow cytometry (reference value: 0.88 +/- 0.72%); type: functional
HeLa [8] = assay: Induction of p53-independent apoptosis in human HeLa cells assessed as early apoptotic cells at 2.5 uM after 24 hrs by Annexin-V-FITC/propidium iodide double staining based flow cytometry (reference value: 6.71 +/- 4.41%); type: functional
[9] = Induction of apoptosis in tumor promotion-sensitive mouse JB6 Cl41 cells assessed as viable cells at 5 uM after 24 hrs by Annexin-V-FITC/propidium iodide staining based flow cytometry (reference value: 94.33 +/- 0.87%); type: cell-based; settings: read-out: Activity
[10] = Induction of apoptosis in tumor promotion-sensitive mouse JB6 Cl41 cells assessed as viable cells at 2.5 uM after 24 hrs by Annexin-V-FITC/propidium iodide staining based flow cytometry (reference value: 94.33 +/- 0.87%); type: cell-based; settings: read-out: Activity
[11] = Induction of apoptosis in tumor promotion-sensitive mouse JB6 Cl41 cells assessed as late apoptotic/necrotic cells at 5 uM after 24 hrs by Annexin-V-FITC/propidium iodide staining based flow cytometry (reference value: 0.53 +/- 0.47%); type: cell-based; settings: jb6 cl41, 24 h
HeLa [12] = assay: Induction of p53-independent apoptosis in human HeLa cells assessed as viable cells at 5 uM after 24 hrs by Annexin-V-FITC/propidium iodide double staining based flow cytometry (reference value: 88.52 +/- 11%); type: functional; settings: read-out: Activity
[13] = Induction of apoptosis in tumor promotion-sensitive mouse JB6 Cl41 cells assessed as early apoptotic cells at 5 uM after 24 hrs by Annexin-V-FITC/propidium iodide staining based flow cytometry (reference value: 2.15 +/- 1.18%); type: cell-based; settings: jb6 cl41, 24 h
HeLa [14] = assay: Induction of p53-independent apoptosis in human HeLa cells assessed as viable cells at 2.5 uM after 24 hrs by Annexin-V-FITC/propidium iodide double staining based flow cytometry (reference value: 88.52 +/- 11%); type: functional; settings: read-out: Activity
HeLa [15] = assay: Induction of p53-independent apoptosis in human HeLa cells assessed as dead cells at 5 uM after 24 hrs by Annexin-V-FITC/propidium iodide double staining based flow cytometry (reference value: 3.89 +/- 0.3%); type: functional
HeLa [16] = assay: Induction of p53-independent apoptosis in human HeLa cells assessed as early apoptotic cells at 5 uM after 24 hrs by Annexin-V-FITC/propidium iodide double staining based flow cytometry (reference value: 6.71 +/- 4.41%); type: functional
[17] = Induction of apoptosis in tumor promotion-sensitive mouse JB6 Cl41 cells assessed as dead cells at 2.5 uM after 24 hrs by Annexin-V-FITC/propidium iodide staining based flow cytometry (reference value: 2.99 +/- 0.82%); type: cell-based; settings: jb6 cl41, 24 h
HeLa [18] = assay: Induction of p53-independent apoptosis in human HeLa cells assessed as dead cells at 2.5 uM after 24 hrs by Annexin-V-FITC/propidium iodide double staining based flow cytometry (reference value: 3.89 +/- 0.3%); type: functional
[19] = Induction of apoptosis in tumor promotion-sensitive mouse JB6 Cl41 cells assessed as late apoptotic/necrotic cells at 2.5 uM after 24 hrs by Annexin-V-FITC/propidium iodide staining based flow cytometry (reference value: 0.53 +/- 0.47%); type: cell-based; settings: jb6 cl41, 24 h
HeLa [20] = assay: Induction of p53-independent apoptosis in human HeLa cells assessed as late apoptotic/necrotic cells at 2.5 uM after 24 hrs by Annexin-V-FITC/propidium iodide double staining based flow cytometry (reference value: 0.88 +/- 0.72%); type: functional
[21] = Induction of apoptosis in tumor promotion-sensitive mouse JB6 Cl41 cells assessed as early apoptotic cells at 2.5 uM after 24 hrs by Annexin-V-FITC/propidium iodide staining based flow cytometry (reference value: 2.15 +/- 1.18%); type: cell-based; settings: jb6 cl41, 24 h
[22] = Induction of apoptosis in tumor promotion-sensitive mouse JB6 Cl41 cells assessed as dead cells at 5 uM after 24 hrs by Annexin-V-FITC/propidium iodide staining based flow cytometry (reference value: 2.99 +/- 0.82%); type: cell-based; settings: jb6 cl41, 24 h
[23] = Induction of apoptosis in tumor promotion-sensitive mouse JB6 Cl41 cells assessed as dead cells at 10 uM after 24 hrs by Annexin-V-FITC/propidium iodide staining based flow cytometry (reference value: 2.99 +/- 0.82%); type: cell-based; settings: jb6 cl41, 24 h
[24] = Induction of apoptosis in tumor promotion-sensitive mouse JB6 Cl41 cells assessed as viable cells at 10 uM after 24 hrs by Annexin-V-FITC/propidium iodide staining based flow cytometry (reference value: 94.33 +/- 0.87%); type: cell-based; settings: read-out: Activity
HeLa [25] = assay: Induction of p53-independent apoptosis in human HeLa cells assessed as viable cells at 10 uM after 24 hrs by Annexin-V-FITC/propidium iodide double staining based flow cytometry (reference value: 88.52 +/- 11%); type: functional; settings: read-out: Activity
HeLa [26] = assay: Induction of p53-independent apoptosis in human HeLa cells assessed as early apoptotic cells at 10 uM after 24 hrs by Annexin-V-FITC/propidium iodide double staining based flow cytometry (reference value: 6.71 +/- 4.41%); type: functional
HeLa [27] = assay: Induction of p53-independent apoptosis in human HeLa cells assessed as dead cells at 10 uM after 24 hrs by Annexin-V-FITC/propidium iodide double staining based flow cytometry (reference value: 3.89 +/- 0.3%); type: functional
[28] = Induction of apoptosis in tumor promotion-sensitive mouse JB6 Cl41 cells assessed as early apoptotic cells at 10 uM after 24 hrs by Annexin-V-FITC/propidium iodide staining based flow cytometry (reference value: 2.15 +/- 1.18%); type: cell-based; settings: jb6 cl41, 24 h
HeLa [29] = assay: Induction of p53-independent apoptosis in human HeLa cells assessed as late apoptotic/necrotic cells at 10 uM after 24 hrs by Annexin-V-FITC/propidium iodide double staining based flow cytometry (reference value: 0.88 +/- 0.72%); type: functional
[30] = Induction of apoptosis in tumor promotion-sensitive mouse JB6 Cl41 cells assessed as late apoptotic/necrotic cells at 10 uM after 24 hrs by Annexin-V-FITC/propidium iodide staining based flow cytometry (reference value: 0.53 +/- 0.47%); type: cell-based; settings: jb6 cl41, 24 h

Chain of Cellular tumor antigen p53 (Mus musculus) (P02340 whole entry): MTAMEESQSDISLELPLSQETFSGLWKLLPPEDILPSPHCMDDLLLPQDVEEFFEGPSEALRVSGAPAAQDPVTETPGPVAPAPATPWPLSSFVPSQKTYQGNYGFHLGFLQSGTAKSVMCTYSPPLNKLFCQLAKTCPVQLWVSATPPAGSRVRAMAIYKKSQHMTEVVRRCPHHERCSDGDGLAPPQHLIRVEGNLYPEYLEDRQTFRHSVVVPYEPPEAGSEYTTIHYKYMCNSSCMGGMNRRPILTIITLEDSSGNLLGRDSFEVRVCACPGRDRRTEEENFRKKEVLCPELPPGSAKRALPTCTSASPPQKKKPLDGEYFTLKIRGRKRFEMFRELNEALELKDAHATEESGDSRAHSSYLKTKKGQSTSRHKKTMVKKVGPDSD

SMILES: O=C1C=C(O)c2c(O)cccc2C1=O
- INCC50 (HeLa [1]): 109.37 µM
- IC50 (HeLa [2]): 196 µM
- inhibition [3]: Active
- Ratio (HeLa [4]): 1.71
- IC50 (HeLa [5]): 187 µM
- IC50 [6]: > 200 µM

SMILES: CO[C@H]1O[C@H](COC2=CC(=O)c3cccc(O)c3C2=O)[C@@H](O)[C@H](O)[C@H]1O
- INCC50 (HeLa [1]): 1.47 µM
- Activity (HeLa [7]): 32.74%
- Activity (HeLa [8]): 27.57%
- viability at 24 h, 5 µM [9]: 21.2%
- viability at 24 h, 2.5 µM [10]: 91.3%
- IC50 (HeLa [2]): 2.34 µM
- inhibition [3]: Active
- Activity [11]: 1.06%
- viability at 5 µM (HeLa [12]): 24.7%
- Activity [13]: 74.65%
- viability at 2.5 µM (HeLa [14]): 54.8%
- Activity (HeLa [15]): 24.08%
- Activity (HeLa [16]): 18.51%
- Activity [17]: 2.63%
- Activity (HeLa [18]): 8.37%
- Activity [19]: 1.28%
- Ratio (HeLa [4]): 1.92
- Activity (HeLa [20]): 9.27%
- IC50 (HeLa [5]): 2.82 µM
- Activity [21]: 4.81%
- IC50 [6]: 4.92 µM
- Activity [22]: 3.07%

SMILES: O=C1C=CC(=O)c2c(O)cccc21 [JUGLONE]
- INCC50 (HeLa [1]): 39.04 µM
- IC50 (HeLa [2]): 68.5 µM
- inhibition [3]: Active
- Ratio (HeLa [4]): 1.67
- IC50 (HeLa [5]): 65.5 µM
- IC50 [6]: 34.3 µM

SMILES: O=C1C=C(O)C(=O)c2c(O)ccc(O)c21
- INCC50 (HeLa [1]): 8.06 µM
- IC50 (HeLa [2]): 42.4 µM
- inhibition [3]: Active
- Ratio (HeLa [4]): 4.71
- IC50 (HeLa [5]): 37.9 µM
- IC50 [6]: 71.2 µM

SMILES: CO[C@H]1O[C@H](COC2=CC(=O)c3c(O)cccc3C2=O)[C@@H](O)[C@H](O)[C@H]1O
- Activity [23]: 1.76%
- INCC50 (HeLa [1]): 1.68 µM
- Activity (HeLa [7]): 1.38%
- viability at 24 h, 10 µM [24]: 13.3%
- viability at 10 µM (HeLa [25]): 20.1%
- Activity (HeLa [26]): 32.33%
- Activity (HeLa [8]): 10.42%
- viability at 24 h, 5 µM [9]: 79.4%
- viability at 24 h, 2.5 µM [10]: 94.3%
- IC50 (HeLa [2]): 5.2 µM
- inhibition [3]: Active
- Activity [11]: 1.93%
- viability at 5 µM (HeLa [12]): 82.8%
- Activity [13]: 15.33%
- viability at 2.5 µM (HeLa [14]): 84.7%
- Activity (HeLa [15]): 2.73%
- Activity (HeLa [27]): 21.48%
- Activity (HeLa [16]): 13.09%
- Activity [17]: 2.35%
- Activity (HeLa [18]): 3.47%
- Activity [28]: 82.93%
- Activity [19]: 0.62%
- Ratio (HeLa [4]): 3.11
- Activity (HeLa [20]): 1.44%
- IC50 (HeLa [5]): 5.22 µM
- Activity (HeLa [29]): 26.07%
- Activity [30]: 2.01%
- Activity [21]: 2.77%
- IC50 [6]: 6.54 µM
- Activity [22]: 3.36%

SMILES: O=C1C=C(O)c2cccc(O)c2C1=O
- INCC50 (HeLa [1]): 35.51 µM
- IC50 (HeLa [2]): 124 µM
- inhibition [3]: Active
- Ratio (HeLa [4]): 3.33
- IC50 (HeLa [5]): 118 µM
- IC50 [6]: 193 µM

SMILES: COC1=CC(=O)c2c(O)cccc2C1=O
- INCC50 (HeLa [1]): 0.59 µM
- IC50 (HeLa [2]): 1.18 µM
- inhibition [3]: Active
- Ratio (HeLa [4]): 2.19
- IC50 (HeLa [5]): 1.29 µM
- IC50 [6]: 1.93 µM

SMILES: COC1=CC(=O)c2c(O)ccc(O)c2C1=O
- INCC50 (HeLa [1]): 0.73 µM
- IC50 (HeLa [2]): 1.8 µM
- inhibition [3]: Active
- Ratio (HeLa [4]): 2.97
- IC50 (HeLa [5]): 2.16 µM
- IC50 [6]: 2.49 µM

SMILES: COC1=CC(=O)c2cccc(O)c2C1=O
- INCC50 (HeLa [1]): 0.61 µM
- IC50 (HeLa [2]): 0.96 µM
- inhibition [3]: Active
- Ratio (HeLa [4]): 1.7
- IC50 (HeLa [5]): 1.04 µM
- IC50 [6]: 1.48 µM

Source: ChEMBL document CHEMBL3232964, “Quinone-carbohydrate nonglucoside conjugates as a new type of cytotoxic agents: synthesis and determination of in vitro activity” (Eur J Med Chem, 2014)
